Results taken from ChEMBL document CHEMBL1649565, “Besifloxacin, a novel fluoroquinolone, has broad-spectrum in vitro activity against aerobic and anaerobic bacteria” (Antimicrob Agents Chemother, 2009).
Values after ≈ are worked out from the molar mass of the structure shown. Active and inactive are the calls of the source. No cut-off for these calls is given here.

Legend:
[1] = Drug concentration in human tears at 0.6% administered topically as single dose measured after 10 mins; type: ADME; conditions: topical or ocular, read-out: Drug uptake
Staphylococcus aureus [2] = assay: Antibacterial activity against ciprofloxacin-susceptible and methicillin-resistant Staphylococcus aureus by CLSI M100-S18 method; type: functional
[3] = tested on: Staphylococcus epidermidis; assay: Antibacterial activity against non-ciprofloxacin-susceptible and methicillin-susceptible Staphylococcus epidermidis by CLSI M100-S18 method; type: functional
[4] = tested on: Staphylococcus saprophyticus; assay: Antibacterial activity against Staphylococcus saprophyticus by CLSI M100-S18 method; type: functional
Streptococcus agalactiae [5] = assay: Antibacterial activity against Streptococcus agalactiae by CLSI M100-S18 method; type: functional
[6] = Antibacterial activity against Lancefield Streptococcus sp. 'group C' by CLSI M100-S18 method; type: functional
Streptococcus sp. [7] = assay: Antibacterial activity against Lancefield Streptococcus sp. group F by CLSI M100-S18 method; type: functional
Streptococcus pneumoniae [8] = assay: Antibacterial activity against non-levofloxacin susceptible Streptococcus pneumoniae by CLSI M100-S18 method; type: functional
Streptococcus oralis [9] = assay: Antibacterial activity against Streptococcus oralis by CLSI M100-S18 method; type: functional
Streptococcus salivarius [10] = assay: Antibacterial activity against Streptococcus salivarius by CLSI M100-S18 method; type: functional
Moraxella catarrhalis [11] = assay: Antibacterial activity against Moraxella catarrhalis by CLSI M7-A7 method; type: functional
Morganella morganii = assay: Antibacterial activity against Morganella morganii by CLSI M7-A7 method; type: functional
Neisseria meningitidis = assay: Antibacterial activity against Neisseria meningitidis by CLSI M7-A7 method; type: functional
Proteus mirabilis [12] = assay: Antibacterial activity against Proteus mirabilis by CLSI M7-A7 method; type: functional
Proteus vulgaris = assay: Antibacterial activity against Proteus vulgaris by CLSI M7-A7 method; type: functional
Bacteroides fragilis = assay: Antibacterial activity against Bacteroides fragilis by CLSI M11-A7 method; type: functional
Clostridium perfringens = assay: Antibacterial activity against Clostridium perfringens by CLSI M11-A7 method; type: functional
Fusobacterium sp. = assay: Antibacterial activity against Fusobacterium sp. by CLSI M11-A7 method; type: functional
Staphylococcus aureus [13] = assay: Antibacterial activity against ciprofloxacin-susceptible and methicillin-resistant Staphylococcus aureus assessed as percent susceptible isolates by CLSI M100-S18 method; type: functional
[14] = tested on: Staphylococcus epidermidis; assay: Antibacterial activity against ciprofloxacin-susceptible and methicillin-resistant Staphylococcus epidermidis assessed as percent susceptible isolates by CLSI M100-S18 method; type: functional
[15] = tested on: Staphylococcus epidermidis; assay: Antibacterial activity against non-ciprofloxacin-susceptible and methicillin-susceptible Staphylococcus epidermidis assessed as percent susceptible isolates by CLSI M100-S18 method; type: functional
Staphylococcus warneri = assay: Antibacterial activity against Staphylococcus warneri assessed as percent susceptible isolates by CLSI M100-S18 method; type: functional
Streptococcus pneumoniae [16] = assay: Antibacterial activity against levofloxacin susceptible Streptococcus pneumoniae assessed as percent susceptible isolates by CLSI M100-S18 method; type: functional
Streptococcus pneumoniae [17] = assay: Antibacterial activity against non-levofloxacin susceptible Streptococcus pneumoniae assessed as percent susceptible isolates by CLSI M100-S18 method; type: functional
Streptococcus anginosus = assay: Antibacterial activity against Streptococcus anginosus assessed as percent susceptible isolates by CLSI M100-S18 method; type: functional
Streptococcus equinus = assay: Antibacterial activity against Streptococcus bovis assessed as percent susceptible isolates by CLSI M100-S18 method; type: functional
[18] = tested on: Streptococcus constellatus; assay: Antibacterial activity against Streptococcus constellatus assessed as percent susceptible isolates by CLSI M100-S18 method; type: functional
[19] = tested on: Streptococcus intermedius; assay: Antibacterial activity against Streptococcus intermedius assessed as percent susceptible isolates by CLSI M100-S18 method; type: functional
Streptococcus mitis = assay: Antibacterial activity against Streptococcus mitis assessed as percent susceptible isolates by CLSI M100-S18 method; type: functional
Streptococcus oralis [20] = assay: Antibacterial activity against Streptococcus oralis assessed as percent susceptible isolates by CLSI M100-S18 method; type: functional
Streptococcus salivarius [21] = assay: Antibacterial activity against Streptococcus salivarius assessed as percent susceptible isolates by CLSI M100-S18 method; type: functional
Streptococcus sanguinis = assay: Antibacterial activity against Streptococcus sanguinis assessed as percent susceptible isolates by CLSI M100-S18 method; type: functional
Haemophilus influenzae = assay: Antibacterial activity against ciprofloxacin-susceptible Haemophilus influenzae assessed as percent susceptible isolates by CLSI M7-A7 method; type: functional
Klebsiella pneumoniae = assay: Antibacterial activity against Klebsiella pneumoniae assessed as percent susceptible isolates by CLSI M7-A7 method; type: functional
Proteus mirabilis [22] = assay: Antibacterial activity against Proteus mirabilis assessed as percent susceptible isolates by CLSI M7-A7 method; type: functional
Serratia marcescens = assay: Antibacterial activity against levofloxacin susceptible Serratia marcescens assessed as percent susceptible isolates by CLSI M7-A7 method; type: functional
Streptococcus agalactiae [23] = assay: Antibacterial activity against Streptococcus agalactiae assessed as percent susceptible isolates by CLSI M100-S18 method; type: functional
Streptococcus sp. [24] = assay: Antibacterial activity against Lancefield Streptococcus sp. group F assessed as percent susceptible isolates by CLSI M100-S18 method; type: functional
Acinetobacter baumannii = assay: Antibacterial activity against Acinetobacter baumannii assessed as percent susceptible isolates by CLSI M7-A7 method; type: functional
[25] = tested on: Acinetobacter calcoaceticus; assay: Antibacterial activity against Acinetobacter calcoaceticus assessed as percent susceptible isolates by CLSI M7-A7 method; type: functional
Acinetobacter lwoffii = assay: Antibacterial activity against Acinetobacter lwoffii assessed as percent susceptible isolates by CLSI M7-A7 method; type: functional
Moraxella catarrhalis [26] = assay: Antibacterial activity against Moraxella catarrhalis assessed as percent susceptible isolates by CLSI M7-A7 method; type: functional
Pseudomonas aeruginosa [27] = assay: Antibacterial activity against ciprofloxacin-susceptible Pseudomonas aeruginosa assessed as percent susceptible isolates by CLSI M7-A7 method; type: functional
Pseudomonas aeruginosa [28] = assay: Antibacterial activity against non-ciprofloxacin-susceptible Pseudomonas aeruginosa assessed as percent susceptible isolates by CLSI M7-A7 method; type: functional
[29] = tested on: Stenotrophomonas maltophilia; assay: Antibacterial activity against non-levofloxacin susceptible Stenotrophomonas maltophilia assessed as percent susceptible isolates by CLSI M7-A7 method; type: functional
[30] = tested on: Stenotrophomonas maltophilia; assay: Antibacterial activity against levofloxacin-susceptible Stenotrophomonas maltophilia assessed as assessed as percent susceptible isolates by CLSI M7-A7 method; type: functional

N[C@@H]1CCCCN(c2c(F)cc3c(=O)c(C(=O)O)cn(C4CC4)c3c2Cl)C1 [BESIFLOXACIN]
concentration at 10 min [1]: 610 µg/mL | MIC (Staphylococcus aureus [2]): 0.015 µg/mL (≈ 0.0381 µM) | MIC50 (Staphylococcus aureus [2]): 0.015 µg/mL (≈ 0.0381 µM) | MIC90 (Staphylococcus aureus [2]): 0.12 µg/mL (≈ 0.305 µM) | MIC [3]: 0.25 µg/mL (≈ 0.635 µM) | MIC50 [3]: 0.25 µg/mL (≈ 0.635 µM) | MIC50 [4]: 0.06 µg/mL (≈ 0.152 µM) | MIC90 [4]: 0.12 µg/mL (≈ 0.305 µM) | MIC50 (Streptococcus agalactiae [5]): 0.06 µg/mL (≈ 0.152 µM) | MIC90 (Streptococcus agalactiae [5]): 0.06 µg/mL (≈ 0.152 µM) | MIC50 [6]: 0.03 µg/mL (≈ 0.0762 µM) | MIC90 [6]: 0.06 µg/mL (≈ 0.152 µM) | MIC50 (Streptococcus sp. [7]): 0.03 µg/mL (≈ 0.0762 µM) | MIC90 (Streptococcus sp. [7]): 0.06 µg/mL (≈ 0.152 µM) | MIC50 (Streptococcus pneumoniae [8]): 0.5 µg/mL (≈ 1.27 µM) | MIC90 (Streptococcus pneumoniae [8]): 0.5 µg/mL (≈ 1.27 µM) | MIC50 (Streptococcus oralis [9]): 0.06 µg/mL (≈ 0.152 µM) | MIC90 (Streptococcus oralis [9]): 0.12 µg/mL (≈ 0.305 µM) | MIC50 (Streptococcus salivarius [10]): 0.06 µg/mL (≈ 0.152 µM) | MIC90 (Streptococcus salivarius [10]): 0.12 µg/mL (≈ 0.305 µM) | MIC50 (Moraxella catarrhalis [11]): 0.03 µg/mL (≈ 0.0762 µM) | MIC90 (Moraxella catarrhalis [11]): 0.03 µg/mL (≈ 0.0762 µM) | MIC50 (Morganella morganii): 0.12 µg/mL (≈ 0.305 µM) | MIC90 (Morganella morganii): 4 µg/mL (≈ 10.2 µM) | MIC50 (Neisseria meningitidis): 0.008 µg/mL (≈ 0.0203 µM) | MIC90 (Neisseria meningitidis): 0.015 µg/mL (≈ 0.0381 µM) | MIC50 (Proteus mirabilis [12]): 0.25 µg/mL (≈ 0.635 µM) | MIC90 (Proteus mirabilis [12]): 16 µg/mL (≈ 40.6 µM) | MIC50 (Proteus vulgaris): 0.12 µg/mL (≈ 0.305 µM) | MIC90 (Proteus vulgaris): 0.25 µg/mL (≈ 0.635 µM) | MIC50 (Bacteroides fragilis): 0.5 µg/mL (≈ 1.27 µM) | MIC90 (Bacteroides fragilis): 1 µg/mL (≈ 2.54 µM) | MIC50 (Clostridium perfringens): 0.25 µg/mL (≈ 0.635 µM) | MIC90 (Clostridium perfringens): 0.25 µg/mL (≈ 0.635 µM) | MIC50 (Fusobacterium sp.): 0.25 µg/mL (≈ 0.635 µM) | MIC90 (Fusobacterium sp.): 1 µg/mL (≈ 2.54 µM) | Activity (Staphylococcus aureus [13]): inactive | Activity [14]: inactive | Activity [15]: inactive | Activity (Staphylococcus warneri): inactive | Activity (Streptococcus pneumoniae [16]): inactive | Activity (Streptococcus pneumoniae [17]): inactive | Activity (Streptococcus anginosus): 0.06% | Activity (Streptococcus equinus): 0.06% | Activity [18]: 0.06% | Activity [19]: 0.06% | Activity (Streptococcus mitis): 0.06% | Activity (Streptococcus oralis [20]): 0.06% | Activity (Streptococcus salivarius [21]): 0.06% | Activity (Streptococcus sanguinis): 0.06% | Activity (Haemophilus influenzae): inactive | Activity (Klebsiella pneumoniae): inactive | Activity (Proteus mirabilis [22]): inactive | Activity (Serratia marcescens): inactive

NC[C@H]1O[C@H](O[C@H]2[C@H](O)[C@@H](O[C@H]3O[C@H](CO)[C@@H](O)[C@H](N)[C@H]3O)[C@H](N)C[C@@H]2N)[C@H](N)C[C@@H]1O [TOBRAMYCIN]
MIC50 (Staphylococcus aureus [2]): 0.5 µg/mL (≈ 1.07 µM) | MIC90 (Staphylococcus aureus [2]): 1 µg/mL (≈ 2.14 µM) | MIC50 [3]: 2 µg/mL (≈ 4.28 µM) | MIC50 [4]: 0.015 µg/mL (≈ 0.0321 µM) | MIC90 [4]: 0.06 µg/mL (≈ 0.128 µM) | MIC50 (Streptococcus agalactiae [5]): 0.06 µg/mL (≈ 0.128 µM) | MIC90 (Streptococcus agalactiae [5]): > 8 µg/mL | MIC50 [6]: 0.06 µg/mL (≈ 0.128 µM) | MIC90 [6]: > 8 µg/mL | MIC50 (Streptococcus sp. [7]): 0.06 µg/mL (≈ 0.128 µM) | MIC90 (Streptococcus sp. [7]): > 8 µg/mL | MIC50 (Streptococcus pneumoniae [8]): 8 µg/mL (≈ 17.1 µM) | MIC90 (Streptococcus pneumoniae [8]): 16 µg/mL (≈ 34.2 µM) | MIC50 (Streptococcus oralis [9]): 0.06 µg/mL (≈ 0.128 µM) | MIC90 (Streptococcus oralis [9]): > 8 µg/mL | MIC50 (Streptococcus salivarius [10]): 0.06 µg/mL (≈ 0.128 µM) | MIC90 (Streptococcus salivarius [10]): > 8 µg/mL | MIC50 (Moraxella catarrhalis [11]): 0.03 µg/mL (≈ 0.0642 µM) | MIC90 (Moraxella catarrhalis [11]): 0.03 µg/mL (≈ 0.0642 µM) | MIC50 (Morganella morganii): 1 µg/mL (≈ 2.14 µM) | MIC90 (Morganella morganii): 4 µg/mL (≈ 8.56 µM) | MIC50 (Proteus mirabilis [12]): 1 µg/mL (≈ 2.14 µM) | MIC90 (Proteus mirabilis [12]): 4 µg/mL (≈ 8.56 µM) | MIC50 (Proteus vulgaris): 1 µg/mL (≈ 2.14 µM) | MIC90 (Proteus vulgaris): 4 µg/mL (≈ 8.56 µM) | Activity (Staphylococcus aureus [13]): 68.4% | Activity [14]: 33.3% | Activity [15]: 16.7% | Activity (Staphylococcus warneri): 34% | Activity (Streptococcus agalactiae [23]): 73% | Activity (Streptococcus sp. [24]): 74% | Activity (Streptococcus pneumoniae [16]): inactive | Activity (Streptococcus pneumoniae [17]): inactive | Activity (Streptococcus anginosus): 95.5% | Activity (Streptococcus equinus): 95.5% | Activity [18]: 95.5% | Activity [19]: 95.5% | Activity (Streptococcus mitis): 95.5% | Activity (Streptococcus oralis [20]): 95.5% | Activity (Streptococcus salivarius [21]): 95.5% | Activity (Streptococcus sanguinis): 95.5% | Activity (Acinetobacter baumannii): 60.4% | Activity [25]: 92.6% | Activity (Acinetobacter lwoffii): 94% | Activity (Haemophilus influenzae): inactive | Activity (Klebsiella pneumoniae): 100% | Activity (Moraxella catarrhalis [26]): 100% | Activity (Proteus mirabilis [22]): 100% | Activity (Pseudomonas aeruginosa [27]): 95.2% | Activity (Pseudomonas aeruginosa [28]): 44.8% | Activity (Serratia marcescens): 100% | Activity [29]: 0% | Activity [30]: 1.9%
